Experimental findings from patent publication US20060223837A1 (priority 2005, published 2006) are described below.

The target in this assay is T1, human VR1 (Homo sapiens, UniProt Q8NER1).
T1 construct: expressed in transfected cells; host or cells: HEK293
As to the kind of experiment: Human VR1 functional assay (FLIPR intracellular Ca2+). It is filed as cell-based. The settings on record: for IC50: antagonism of capsaicin-induced Ca2+ increase, read-out: h IC50; for inhibition at 5 µM: read-out: h % I (5 μM); for inhibition at 1 µM: read-out: h % I (1 μM). As for the experimental part: The functional activity of the test compounds was determined by measuring changes in intracellular calcium concentration using a Ca^2+-sensitive fluorescent dye and FLIPR™ technology. Increases in Ca^2+ concentration were readily detected upon challenge with capsaicin. HEK293 Cells expressing human VR1 were grown on poly-D-lysine coated 384 well black-walled plates (BD 354663) and 1 day later loaded with Calcium 3 Dye for 35 min at 37 C, 5% CO2 and then for 25 min at room temperature, and subsequently tested for agonist-induced increases in intracellular Ca^2+ levels using FLIPR™ technology. Cells were challenged with test compounds (at varying concentrations, which are indicated in parentheses in the heading of the table below) and intracellular Ca^2+ was measured for 5 min prior to the addition of capsaicin to all wells to achieve a final concentration of eliciting an approximate 80% maximal response ([…]). EC50 or IC50 values were determined from dose-response studies. Curves were generated using the average of quadruplicate wells for each data point.

Where [1] appears, read: inhibition of capsaicin response.

T1 sequence (Q8NER1 whole entry): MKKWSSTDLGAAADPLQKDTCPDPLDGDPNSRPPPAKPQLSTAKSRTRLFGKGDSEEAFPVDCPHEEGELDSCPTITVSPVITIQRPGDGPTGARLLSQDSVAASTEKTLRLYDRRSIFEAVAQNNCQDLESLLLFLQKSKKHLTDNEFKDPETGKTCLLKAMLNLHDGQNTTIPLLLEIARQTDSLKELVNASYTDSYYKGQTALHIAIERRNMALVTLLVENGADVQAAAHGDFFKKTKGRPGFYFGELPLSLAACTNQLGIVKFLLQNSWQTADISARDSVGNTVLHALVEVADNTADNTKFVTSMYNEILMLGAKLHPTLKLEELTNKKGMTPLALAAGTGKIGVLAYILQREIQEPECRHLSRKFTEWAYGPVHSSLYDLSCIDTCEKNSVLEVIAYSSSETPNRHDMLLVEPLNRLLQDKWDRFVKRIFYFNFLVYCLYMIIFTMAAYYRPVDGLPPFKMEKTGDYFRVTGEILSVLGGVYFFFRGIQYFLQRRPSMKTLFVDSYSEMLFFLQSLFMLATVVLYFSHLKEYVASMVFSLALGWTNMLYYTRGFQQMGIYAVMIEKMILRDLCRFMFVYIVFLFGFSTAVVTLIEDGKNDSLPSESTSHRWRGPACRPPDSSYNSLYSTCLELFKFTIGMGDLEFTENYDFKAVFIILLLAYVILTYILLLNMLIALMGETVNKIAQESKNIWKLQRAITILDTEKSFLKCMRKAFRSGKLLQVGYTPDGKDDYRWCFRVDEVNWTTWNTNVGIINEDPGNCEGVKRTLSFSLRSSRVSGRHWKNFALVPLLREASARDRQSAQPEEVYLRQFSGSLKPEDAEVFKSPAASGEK

In the case of `Cc1cc(NC(=O)/C=C/c2ccc(C(F)(F)F)cn2)cnc1-n1cnc(Cl)c1Cl` [Cpd 276], the “h % I (1 μM)” value under setting [1] was found to be 19%.

Turning to `CC(C)(C)c1ccc(CCC(=O)Nc2cc(F)c(-c3ccc(O)cc3)c(F)c2)cc1` [Cpd 90], the “% Response Relative to EC80 of Capsaicin (6 μM)” value (shortened to “% Response Relative to EC80”) (agonist response, 6 μM) is 17%.

For `CC(C)(C)c1ccc(CCC(=O)Nc2cnc(-c3ccc(O)cc3)cn2)cc1` [Cpd 185], under setting [1], the “h % I (1 μM)” value is recorded as 1% and the “h % I (5 μM)” value is reported as 24%.

With `Cc1cc(NC(=O)CCc2ccc(C(C)(C)C)cc2)cc(C)c1-c1ccc(O)cc1` [Cpd 87], the IC50 turned out to be 0.857 µM. For the same molecule, the inhibition at 5 µM under setting [1] worked out at 92%.

Regarding `CC(C)(C)c1ccc(CCC(=O)Nc2cc(F)c(-c3ccc(CO)cc3)c(F)c2)cc1` [Cpd 91], the “% Response Relative to EC80” value (agonist response, 6 μM) is 22%.

As to `O=C(CCc1ccc(C(F)(F)F)cc1)Nc1cnc(-c2ccccc2O)c(C(F)(F)F)c1` [Cpd 213], the IC50 turned out to be 0.0645 µM. In addition, the inhibition at 5 µM under setting [1] was determined as 100%.

`Cc1cc(NC(=O)/C=C/c2ccc([S+]([O-])C(F)(F)F)cc2)cnc1-n1cnc(Cl)c1Cl` (centres unmarked) [Cpd 274]: the “h % I (1 μM)” value under setting [1] is recorded as 18%.

Regarding `O=C(CCc1ccc(SC(F)(F)F)cc1)Nc1ccc(-n2cnc(Cl)c2Cl)c(C(F)(F)F)c1` [Cpd 239], the IC50 was found to be 0.358 µM. Under setting [1], the inhibition at 1 µM came to 88%.

Turning to `Cc1cc(NC(=O)CCc2ccc(SC(F)(F)F)cc2)cnc1-n1cnc(Cl)c1Cl`, the “h % I (1 μM)” value under setting [1] is recorded as 41%.

`CC(C)(C)c1ccc(CCC(=O)Nc2ccc(-c3cccc(CO)c3)c(CO)c2)cc1` [Cpd 95]: under “agonist response, 6 μM, read-out: % Response Relative to EC80 of Capsaicin (6 μM)”, the Emax at 6 µM is 127%. Moreover, the EC50 (agonist-induced Ca2+ increase, read-out: h EC50) turned out to be 0.248 µM. For the same molecule, under setting [1], the inhibition at 1 µM turned out to be 40%.

Regarding `O=C(/C=C/c1ccc(C(F)(F)F)cn1)Nc1ccc(-n2cnc(Cl)c2Cl)c(C(F)(F)F)c1` [Cpd 235, trans-N-[4-(4,5-Dichloro-imidazol-1-yl)-3-trifluoromethyl-phenyl]-3-(5-trifluoromethyl-pyridin-2-yl)-acrylamide], the IC50 came to 0.294 µM. Besides, the inhibition at 1 µM under setting [1] is 99%.

`Cc1cc(NC(=O)CCc2ccc([S+]([O-])C(F)(F)F)cc2)cnc1-n1cnc(Cl)c1Cl` (centres unmarked) [Cpd 273]: the “h % I (1 μM)” value under setting [1] was 36%.

`CC(C)(C)c1ccc(CCC(=O)Nc2cnc(-c3ccccc3O)cn2)cc1` [Cpd 183]: under setting [1], the “h % I (1 μM)” value is 1% and the “h % I (5 μM)” value is on record as 9%.

Take `Cc1cc(NC(=O)CCc2ccc(C(C)(C)C)cc2)cnc1-c1cccnc1` [Cpd 164, 3-(4-tert-butyl-phenyl)-N-(3-methyl-[2,3′]bipyridinyl-5-yl)-propionamide]: the IC50 came to 0.193 µM. Also, the inhibition at 5 µM under setting [1] worked out at 99%.

With `Cc1cc(NC(=O)CCc2ccc(C(C)(C)C)cc2)cnc1-c1cccc(O)c1` [Cpd 161, 3-(4-tert-butyl-phenyl)-N-[6-(3-hydroxy-phenyl)-5-methyl-pyridin-3-yl]-propionamide], the IC50 was determined as 0.036 µM. In addition, the inhibition at 5 µM under setting [1] came out at 94%.

Turning to `CC(C)(C)c1ccc(CCC(=O)Nc2ccc(-n3ccnc3)c(C(F)(F)F)c2)cc1` [Cpd 264], under setting [1], the “h % I (1 μM)” value is given as 24% and the “h % I (5 μM)” value is 48%.

As for `O=C(CCc1ccc(F)cc1)Nc1ccc(-n2cnc(Cl)c2Cl)c(C(F)(F)F)c1` [Cpd 243], the IC50 was 0.44 µM. Further, under setting [1], the inhibition at 1 µM turned out to be 92%.

For `Cc1cc(NC(=O)/C=C/c2ccc(SC(F)(F)F)cc2)cnc1-n1cnc(Cl)c1Cl` [Cpd 275], the “h % I (1 μM)” value under setting [1] is recorded as 16%.

`Cc1cc(NC(=O)CCc2ccc(C(C)(C)C)cc2)cc(C)c1-c1ccncc1` [Cpd 167, 3-(4-tert-butyl-phenyl)-N-(3,5-dimethyl-4-pyridin-4-yl-phenyl)-propionamide]: the IC50 is 0.183 µM. The inhibition at 5 µM under setting [1] stood at 93%.

`O=C(CCc1ccc(F)c(F)c1)Nc1ccc(-n2ccnc2)c(C(F)(F)F)c1` [Cpd 256]: under setting [1], the inhibition at 1 µM turned out to be 42%.

`Cc1nc(-c2ccc(NC(=O)CCc3ccc(C(F)(F)F)cc3)cc2C(F)(F)F)no1` [Cpd 266, N-[4-(5-Methyl-[1,2,4]oxadiazol-3-yl)-3-trifluoromethyl-phenyl]-3-(4-trifluoromethyl-phenyl)-propionamide]: under setting [1], the inhibition at 1 µM amounted to 47% and the inhibition at 5 µM was found to be 64%.

Regarding `Cc1cc(NC(=O)CCc2ccc(C(C)(C)C)cc2)cnc1-c1ccc(CO)cc1` [Cpd 163, 3-(4-tert-butyl-phenyl)-N-[6-(4-hydroxymethyl-phenyl)-5-methyl-pyridin-3-yl]-propionamide], the IC50 worked out at 0.097 µM. Under setting [1], the inhibition at 5 µM amounted to 100%.

Turning to `Cc1cc(NC(=O)CCc2ccc(C(C)(C)C)cc2)cnc1-c1ccccn1` [Cpd 177], the IC50 was 0.295 µM.

For the molecule `CC(C)(C)c1ccc(CCC(=O)Nc2ccccc2-c2ccccc2O)cc1` [Cpd 8], the “h % I (10 μM)” value (inhibition of capsaicin response, 10 μM) is reported as 45%.

`Cc1cc(NC(=O)CCc2ccc(C(C)(C)C)cc2)cc(C)c1-c1cccnc1` [Cpd 166]: the IC50 stood at 2.86 µM. Also, the inhibition at 5 µM under setting [1] came out at 76%.

Regarding `Cc1cc(NC(=O)CCc2ccc(C(C)(C)C)cc2)cnc1-c1ccc(O)cc1` [Cpd 162, 3-(4-tert-butyl-phenyl)-N-[6-(4-hydroxy-phenyl)-5-methyl-pyridin-3-yl]-propionamide], the IC50 was 0.126 µM. The inhibition at 5 µM under setting [1] stood at 99%.

Regarding `Cc1cc(NC(=O)CCc2ccc(C(C)(C)C)cc2)cc(C)c1-c1ccc(CO)cc1` [Cpd 88], the IC50 was 1.71 µM. Moreover, the inhibition at 5 µM under setting [1] stood at 84%.

In the case of `CC(C)(C)c1ccc(CCC(=O)Nc2ccc(-c3cccnc3)c(CO)c2)cc1` [Cpd 170], the “% Response Relative to EC80” value (agonist response, 6 μM) worked out at 101%. Also, under setting [1], the “h % I (1 μM)” value turned out to be 37%.

For `COC(=O)c1cn(-c2ccc(NC(=O)CCc3ccc(C(F)(F)F)cc3)cc2C(F)(F)F)cn1` [Cpd 271], the “h % I (1 μM)” value under setting [1] is 26%.

With `O=C(CCc1ccc([S+]([O-])C(F)(F)F)cc1)Nc1ccc(-n2cnc(Cl)c2Cl)c(C(F)(F)F)c1` (centres unmarked) [Cpd 244], the IC50 was 0.452 µM. The inhibition at 1 µM under setting [1] is 85%.

Regarding `Cc1cc(NC(=O)CCc2ccc(F)c(F)c2)cnc1-n1cnc(Cl)c1Cl` [Cpd 257], the inhibition at 1 µM under setting [1] amounted to 41%.

As for `COc1cccc(-c2ncc(NC(=O)CCc3ccc(C(C)(C)C)cc3)cc2C)c1` [Cpd 259], the inhibition at 5 µM under setting [1] was 90%.

On to `Cc1nccn1-c1ccc(NC(=O)CCc2ccc(C(F)(F)F)cc2)cc1C(F)(F)F` [Cpd 267], for which the “h % I (1 μM)” value under setting [1] is recorded as 20%.

Turning to `CC(C)(C)c1ccc(CCC(=O)Nc2cnc(-c3cccc(O)c3)cn2)cc1` [Cpd 184], under setting [1], the “h % I (1 μM)” value amounted to 1% and the “h % I (5 μM)” value is on record as 14%.

Turning to `Cc1cc(NC(=O)CCc2ccc(F)cc2)cnc1-n1cnc(Cl)c1Cl` [Cpd 280], the “h % I (1 μM)” value under setting [1] amounted to 16%.

Regarding `CC(C)(C)c1ccc(CCC(=O)Nc2ccc(-c3ccccn3)c(F)c2)cc1` [Cpd 173], the IC50 was 0.388 µM.

Take `Cc1cn(-c2ccc(NC(=O)CCc3ccc([S+]([O-])C(F)(F)F)cc3)cc2C(F)(F)F)cn1` (centres unmarked) [Cpd 222]: the IC50 was found to be 0.137 µM. Under setting [1], the inhibition at 1 µM came out at 100%.

Consider `Cc1cc(NC(=O)CCc2ccc(C(F)(F)F)cn2)cnc1-n1cnc(Cl)c1Cl` [Cpd 278], for which the “h % I (1 μM)” value under setting [1] amounted to 36%.

For the molecule `Cc1cc(NC(=O)CCc2ccc(C(F)(F)F)cc2)cnc1-n1ccnc1` [Cpd 247], the IC50 worked out at 0.549 µM. In addition, under setting [1], the inhibition at 5 µM was 97%.

For `Cc1cc(NC(=O)CCc2ccc(C(C)(C)C)cc2)cc(C)c1-c1ccccn1` [Cpd 174], the IC50 turned out to be 2.89 µM.

For the molecule `O=C(CCc1ccc(C(F)(F)F)cc1)Nc1ccc(-c2noc(C(F)(F)F)n2)c(C(F)(F)F)c1` [Cpd 265, 3-(4-Trifluoromethyl-phenyl)-N-[3-trifluoromethyl-4-(5-trifluoromethyl-[1,2,4]oxadiazol-3-yl)-phenyl]-propionamide], under setting [1], the inhibition at 1 µM is 18% and the inhibition at 5 µM came out at 63%.

As for `O=C(CCc1ccc(C(F)(F)F)cc1)Nc1ccc(-n2ccc3ccccc32)c(C(F)(F)F)c1` [Cpd 269], the “h % I (1 μM)” value under setting [1] is reported as 21%.

As to `O=C(CCc1ccc(C(F)(F)F)cc1)Nc1ccc(-n2cnc(C(F)(F)F)c2)c(C(F)(F)F)c1` [Cpd 238, 3-(4-Trifluoromethyl-phenyl)-N-[3-trifluoromethyl-4-(4-trifluoromethyl-imidazol-1-yl)-phenyl]-propionamide], the IC50 was found to be 0.34 µM. For the same molecule, under setting [1], the inhibition at 1 µM was found to be 100%.

For `CC(C)(C)c1ccc(CCC(=O)Nc2cnc(-c3ccncc3)cn2)cc1` [Cpd 188], under setting [1], the “h % I (1 μM)” value was 4% and the “h % I (5 μM)” value was determined as 33%.

Consider `CC(C)(C)c1ccc(CCC(=O)Nc2ccc(-c3cccnc3)c(F)c2)cc1` [Cpd 181], for which the IC50 was determined as 0.4 µM.

Regarding `CC(C)c1nccn1-c1ccc(NC(=O)CCc2ccc(C(F)(F)F)cc2)cc1C(F)(F)F` [Cpd 268], the “h % I (1 μM)” value under setting [1] came to 15%.

As for `CC(C)(C)c1ccc(CCC(=O)Nc2cc(F)c(-c3cccc(O)c3)c(F)c2)cc1` [Cpd 89], under setting [1], the “h % I (5 μM)” value came out at 65%.

Turning to `Cc1cc(NC(=O)CCc2ccc(C(C)(C)C)cc2)cnc1-c1ccncc1` [Cpd 165, 3-(4-tert-butyl-phenyl)-N-(3-methyl-[2,4′]bipyridinyl-5-yl)-propionamide], the IC50 amounted to 0.073 µM. For the same molecule, the inhibition at 5 µM under setting [1] stood at 99%.

Take `Cc1cn(-c2ccc(NC(=O)CCc3ccc(S(=O)(=O)C(F)(F)F)cc3)cc2C(F)(F)F)cn1` [Cpd 209]: the IC50 came out at 0.048 µM. Further, the inhibition at 1 µM under setting [1] stood at 100%.

As usually defined, the IC50 is the midpoint of a concentration-inhibition curve. What is called EC50 is the concentration giving half of the maximal effect.
